Like-named read-outs stand apart in the source and are kept apart here.

The subject of series [1] is hiPSC-CM (iCell Cardiomyocytes^2). Put plainly: RTCA CardioECR assessment (impedance and electrophysiology parameters). The following applies: human, 72 h. The procedure: (§1) Culture media change was performed every 2 days.
After seeding on fibronectin-coated xCELLigence ePlates (Agilent Technologies, Inc. Santa Clara, CA, USA), iCell^2 CM were monitored continuously through impedance electrodes. The following impedance parameters were measured: Cell Index (CI, measure of cell “health” and monolayer integrity), beating rate (BR) and amplitude (CI Amplitude, magnitude of contraction). Electrophysiology-like parameters (Field Potential Duration (FPD), considered as a surrogate for QT in in vivo studies, and Spike Amplitude (SA), depolarization induced by Na^+ channel opening) were measured starting from day 4–6, following the monolayer formation. […] All RTCA CardioECR data were double normalized (DMSO control and the baseline) with no further statistical group comparison for the normalized parameters. The variability of the data within the treatment groups was assessed by standard deviation.

The test system is the same in series [2]. As to the kind of experiment: Intracellular miRNA expression by RT-qPCR in hiPSC-CM pellets after 72-hour treatment. The procedure: as §1
Total RNA was extracted from hiPSC-CM using the miRNeasy 96 Kit (Qiagen, Hilden, Germany) following the manufacturer’s recommendations. After the extraction, RNA purity was assessed by NanoDrop™ 8000 Spectrophotometer (Thermo Fisher Scientific Inc.). 5–10 ng/μL of RNA per sample were reverse transcribed and pre-amplified by using the TaqMan™ Advanced miRNA cDNA Synthesis Kit (Thermo Fisher Scientific Inc.). The synthesized cDNA was used for RT-qPCR with selected TaqMan™ assays (Thermo Fischer Scientific Inc.). RT-qPCR was carried out following the Applied Biosciences TaqMan miRNA expression assay protocol on a ViiA7 instrument (Thermo Fisher Scientific, Inc.). […] Therefore, to maximize the number of drugs and concentrations, explored in the same study, we pooled the triplicates for intracellular profiling of miRNAs. Therefore, no statistical analysis was performed on the data of miRNA profiling in the pellets of hiPSC-CM.
Following RTCA CardioECR assessment, hiPSC-CM cell pellets were collected, and total RNA was extracted and purified to investigate miRNAs upregulation by RT-qPCR. […] For the initial assessment of intracellular miRNAs in 12 different treatments, encompassing various drug classes, we used a panel of 17 miRNAs, which we selected from the publicly available data focusing mainly on in vitro models and structural cardiotoxicants (Supplementary Table S2).
On the technique in general: Real-time PCR tracks product formation cycle by cycle.

For series [3] the following is noted: ref extensive literature search, cited from earlier work.

As to `N=C(N)c1ccc(OCCCCCOc2ccc(C(=N)N)cc2)cc1` [Pentamidine], in series [1], the “Beating Rate MEC” value is listed as 3 µM, the “Beating rate (BR) MEC” value is recorded as 3 µM, the “Contractility Amplitude MEC” value came out at 0.1 µM and the “Field Potential Duration MEC” value is given as 1 µM. In addition, in series [1], the “RTCA, MEC (BR)” value is 3 µM (CI, BR); the “RTCA, MEC (CI)” value is 3 µM (CI, BR); the “Spike Amplitude (SA) MEC” value is reported as 0.1 µM. In series [2], the “miRNAs hiPSC-CM pellet, MEC overall” value is listed as 0.1 µM and the “miRNAs upregulated at the MEC overall (hiPSC-CM pellet)” value is on record as “miR-126-3p, miR-146b-5p, miR-208b-3p”. The Cmax total in series [3] (Supplementary Table 1) is on record as 1.8 µM. In addition, the Cmax total in series [3] (Table 1) is reported as 1.80 µM.
